According to patent US9512139B2, “Conformationally constrained, fully synthetic macrocyclic compounds” (POLYPHOR AG, priority 2009, dated 2016):

Key:
in vitro = in vitro ADME, human; settings: human, plasma; for Plasma Stability T½ [min] hum / Plasma Stability 240 min hum [% remain.]: 10 µM; for Plasma Stability 240 min hum [% remain.]: 4 h
[1] = Metabolic stability assay, human microsomes; type: in vitro ADME; settings: human, microsomes; for Metabolic Stability T½ [min] hum / Metabolic Stability 60 min hum [% remain.]: both, 10 µM; for Metabolic Stability 60 min hum [% remain.]: 1 h; for half-life at 10 µM: both sexes
[2] = Metabolic stability assay, CD-1 mouse microsomes; type: in vitro ADME; settings: CD-1, mouse, microsomes; for Metabolic Stability T½ [min] mouse / Metabolic Stability 60 min mouse [% remain.]: both, 10 µM; for Metabolic Stability 60 min mouse [% remain.]: 1 h
[3] = Plasma stability assay, rat plasma (values in parentheses); type: in vitro ADME; settings: value in parentheses
[4] = Metabolic stability assay, rat microsomes (values in parentheses); type: in vitro ADME; settings: value in parentheses

Row | SMILES | Plasma Stability T½ [min] hum (in vitro) | Plasma Stability 240 min hum [% remain.] (in vitro) | Metabolic Stability T½ [min] hum [1] | Metabolic Stability 60 min hum [% remain.] [1] | Metabolic Stability T½ [min] mouse [2] | Metabolic Stability 60 min mouse [% remain.] [2] | Plasma Stability 240 min (rat) [% remain.] [3] | Plasma Stability T½ [min] (rat) [3] | Metabolic Stability 60 min (rat) [% remain.] [4] | Metabolic Stability T½ [min] (rat) [4] | half-life at 10 µM [1] | half-life at 10 µM (in vitro) | half-life at 10 µM ([2]; both sexes) | half-life at 10 µM ([4]; read-out: Metabolic Stability T½ [min] (rat))
1 | CN1C(=O)c2cccc(c2)OC[C@@H]2C[C@H](NC(=O)CCc3ccncc3)CN2C(=O)COC[C@H]1C(=O)NCc1ccc2ccccc2c1 [Ex. 372, (4S,6S,13S)-14-methyl-N-(2-naphthylmethyl)-9,15-dioxo-6-{[3-(4-pyridinyl)propanoyl]amino}-2,11-dioxa-8,14-diazatricyclo[14.3.1.0^4,8]icosa-1(20),16,18-triene-13-carboxamide] | > 240 min | 68 % remain. |  | 43 % remain. | > 60 min | 73 % remain. | (100) % remain. | (240) min | 72 % remain. | 60 (60) min | 0.767 h |  |  | 
2 | COCCNC(=O)[C@@H]1COCC(=O)N2C[C@@H](NCC(C)C)C[C@H]2COc2cccc(c2)C(=O)N1C [Ex. 376, (4S,6S,13S)-6-(isobutylamino)-N-(2-methoxyethyl)-14-methyl-9,15-dioxo-2,11-dioxa-8,14-diazatricyclo[14.3.1.0^4,8]icosa-1(20),16,18-triene-13-carboxamide] | > 240 min | 90 % remain. | > 60 min | 79 % remain. | > 60 min | 91 % remain. | (89) % remain. | (240) min | 78 % remain. | 60 (60) min |  |  |  | 
3 | CN(C)CCNC(=O)[C@@H]1COCC(=O)N2C[C@@H](NC(=O)Cc3ccc4ccccc4c3)C[C@H]2COc2cccc(c2)C(=O)N1C [Ex. 374, (4S,6S,13S)-N-[2-(dimethylamino)ethyl]-14-methyl-6-{[2-(2-naphthyl)acetyl]amino}-9,15-dioxo-2,11-dioxa-8,14-diazatricyclo[14.3.1.0^4,8]icosa-1(20),16,18-triene-13-carboxamide] | > 240 min | 57 % remain. | > 60 min | 61 % remain. | > 60 min | 94 % remain. | (82) % remain. | (240) min | 90 % remain. | 60 (60) min |  |  |  | 
4 | CN1C(=O)c2cccc(c2)OC[C@@H]2C[C@H](N)CN2C(=O)COC[C@H]1C(=O)NCc1ccc2ccccc2c1 [Ex. 368, (4S,6S,13S)-6-amino-14-methyl-N-(2-naphthylmethyl)-9,15-dioxo-2,11-dioxa-8,14-diazatricyclo[14.3.1.0^4,8]icosa-1(20),16,18-triene-13-carboxamide] | > 240 min | 72 % remain. | > 60 min | 83 % remain. | > 60 min | 82 % remain. | (100) % remain. | (240) min | 98 % remain. | 60 (60) min |  |  |  | 
5 | CC(C)CN[C@H]1C[C@H]2COc3cccc(c3)C(=O)N(C)[C@H](C(=O)NCc3ccc4ccccc4c3)COCC(=O)N2C1 [Ex. 373, (4S,6S,13S)-6-(isobutylamino)-14-methyl-N-(2-naphthylmethyl)-9,15-dioxo-2,11-dioxa-8,14-diazatricyclo[14.3.1.0^4,8]icosa-1(20),16,18-triene-13-carboxamide] | > 240 min | 55 % remain. |  | 12 % remain. |  | 39 % remain. | (100) % remain. | (240) min | 0 % remain. |  | 0.2 h |  | 0.6 h | 7 min

Continued, values first:

Row | Plasma Stability T½ [min] hum (in vitro) | Plasma Stability 240 min hum [% remain.] (in vitro) | Metabolic Stability T½ [min] hum [1] | Metabolic Stability 60 min hum [% remain.] [1] | Metabolic Stability T½ [min] mouse [2] | Metabolic Stability 60 min mouse [% remain.] [2] | Plasma Stability 240 min (rat) [% remain.] [3] | Plasma Stability T½ [min] (rat) [3] | Metabolic Stability 60 min (rat) [% remain.] [4] | Metabolic Stability T½ [min] (rat) [4] | half-life at 10 µM [1] | half-life at 10 µM (in vitro) | half-life at 10 µM ([2]; both sexes) | half-life at 10 µM ([4]; read-out: Metabolic Stability T½ [min] (rat)) | SMILES
6 | > 240 min | 85 % remain. | > 60 min | 100 % remain. | > 60 min | 80 % remain. | (79) % remain. | (240) min | 100 % remain. | 60 (60) min |  |  |  |  | COCCNC(=O)[C@@H]1COCC(=O)N2C[C@@H](N)C[C@H]2COc2cccc(c2)C(=O)N1C [Ex. 369, (4S,6S,13S)-6-amino-N-(2-methoxyethyl)-14-methyl-9,15-dioxo-2,11-dioxa-8,14-diazatricyclo[14.3.1.0^4,8]icosa-1(20),16,18-triene-13-carboxamide]
7 | > 240 min | 95 % remain. | > 60 min | 72 % remain. | > 60 min | 86 % remain. | (100) % remain. | (240) min | 97 % remain. | 60 (60) min |  |  |  |  | COCCNC(=O)[C@@H]1COCC(=O)N2C[C@@H](N3CCN(C)CC3)C[C@H]2COc2cccc(c2)C(=O)N1C [Ex. 377, (4S,6S,13S)-N-(2-methoxyethyl)-14-methyl-6-(4-methylpiperazino)-9,15-dioxo-2,11-dioxa-8,14-diazatricyclo[14.3.1.0^4,8]icosa-1(20),16,18-triene-13-carboxamide]
8 |  | 48 % remain. | > 60 min | 65 % remain. | > 60 min | 87 % remain. | (100) % remain. | (240) min | 72 % remain. | 60 (60) min |  | 4 h |  |  | COCCNC(=O)[C@@H]1COCC(=O)N2C[C@@H](N3CCN(Cc4ccccc4)CC3)C[C@H]2COc2cccc(c2)C(=O)N1C [Ex. 378, (4S,6S,13S)-6-(4-benzylpiperazino)-N-(2-methoxyethyl)-14-methyl-9,15-dioxo-2,11-dioxa-8,14-diazatricyclo[14.3.1.0^4,8]icosa-1(20),16,18-triene-13-carboxamide]
